Assay results as given in patent US20200024278A1, “COMPOSITION COMPRISING ANTIBIOTIC COMPOUND AND AN HETEROCYCLIC COMPOUND AND THEIR USE IN PREVENTING OR TREATING BACTERIAL INFECTIONS” (MUTABILIS, priority 2016, published 2020).
Where a name gives a salt, the structure may show the parent alone. Read-outs that look alike come from different tables or passages of the source. One block for each molecule: values may come before it.

Key:
Test in all cases: MIC, broth microdilution (CLSI), substance alone or ATB combined with compound at 4 or 8 μg/mL
[1] = tested on: SAU 29213; format: cell-based, S. aureus; conditions: for MIC: Staphylococcus aureus; for MIC ATB combined with Example: Example @8 μg/ml
Procedure, shortened: (§1)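 Each strain received 5·10^5 CFU/mL of log-phase cells in ca-MHB over DMSO-spotted compound or compound-antibiotic combinations. After 16-20 h at 35° C, growth was scored visually.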

[2] = tested on: KPN UFR42; format: cell-based, K. pneumoniae; conditions: KPN UFR42; for MIC: Klebsiella pneumoniae; for MIC ATB combined with Example: Example @8 μg/ml
Procedure, shortened: as §1

[3] = tested on: KPN BAA-1898; format: cell-based, K. pneumoniae; conditions: KPN BAA-1898; for MIC: Klebsiella pneumoniae, BAA1898; for MIC ATB combined with Example: Example @8 μg/ml
Procedure, shortened: as §1

[4] = tested on: KPN 6299; format: cell-based, K. pneumoniae; conditions: for MIC ATB combined with Example: Example @8 μg/ml
Procedure, shortened: as §1

[5] = tested on: ECL P99; format: cell-based, E. cloacae; conditions: ECL P99; for MIC: Enterobacter cloacae; for MIC ATB combined with Example: Example @8 μg/ml
Procedure, shortened: as §1

[6] = tested on: ABA 19606; format: cell-based, A. baumannii; conditions: for MIC: Acinetobacter baumannii
Procedure, shortened: as §1

[7] = tested on: ABA UFR160; format: cell-based, A. baumannii; conditions: for MIC: Acinetobacter baumannii
Procedure, shortened: as §1

[8] = tested on: ECO UFR39; format: cell-based, E. coli; conditions: ECO UFR39; for MIC: Escherichia coli; for MIC ATB combined with Example: Example @8 μg/ml
Procedure, shortened: as §1

[9] = tested on: ECO 190317; format: cell-based, E. coli; conditions: ECO 190317; for MIC: Escherichia coli; for MIC ATB combined with Example: Example @8 μg/ml
Procedure, shortened: as §1

[10] = tested on: PAE UFR90; format: cell-based, P. aeruginosa; conditions: PAE UFR90; for MIC: Pseudomonas aeruginosa; for MIC ATB combined with Example: Example @8 μg/ml
Procedure, shortened: as §1

[11] = tested on: PAE UFR48; format: cell-based, P. aeruginosa; conditions: PAE UFR48; for MIC: Pseudomonas aeruginosa; for MIC ATB combined with Example: Example @8 μg/ml
Procedure, shortened: as §1

[12] = tested on: PAE 105250; format: cell-based, P. aeruginosa; conditions: PAE 105250; for MIC: Pseudomonas aeruginosa; for MIC ATB combined with Example: Example @8 μg/ml
Procedure, shortened: as §1

[13] = tested on: SPN 49619; format: cell-based, S. pneumoniae; conditions: SPN 49619; for MIC: Streptococcus pneumoniae; for MIC ATB combined with Example: Example @8 μg/ml
Procedure, shortened: as §1

[14] = substance alone, SAU 29213 (MSSA 29213), read-out: MIC
[15] = antibiotic alone, read-out: MIC ATB alone

Structure (SMILES): CO/N=C(\C(=O)N[C@@H]1C(=O)N2C(C(=O)[O-])=C(C[N+]3(C)CCCC3)CS[C@H]12)c1csc(N)n1 [FEP, Cefepime]
MIC ([1]; antibiotic alone, SAU 29213, read-out: MIC ATB alone): 4 µg/mL | MIC [1, 14]: 4 µg/mL | MIC [2, 15]: 128 µg/mL | MIC [3, 15]: 64 µg/mL | MIC ([3]; substance alone, read-out: MIC): 64 µg/mL | MIC ([4]; Klebsiella pneumoniae, antibiotic alone, read-out: MIC ATB alone): 128 µg/mL | MIC [5, 15]: 2 µg/mL | MIC ([5]; substance alone, read-out: MIC): 2 µg/mL | MIC [6, 15]: 16 µg/mL | MIC ATB combined with Example 1 @8 μg/ml ([6]; with Example 1 @8 μg/ml): 32 µg/mL | MIC ATB combined with Example 3 @8 μg/ml ([6]; with Example 3 @8 μg/ml): 8 µg/mL | MIC ATB combined with Example 6 @8 μg/ml ([6]; with Example 6 @8 μg/ml): <=0.25 μg/mL | MIC ATB combined with Example 9 @4 μg/ml ([6]; with Example 9 @4 μg/ml): 16 µg/mL | MIC ATB combined with Example 10 @8 μg/ml ([6]; with Example 10 @8 μg/ml): 8 µg/mL | MIC ATB combined with Example 11 @8 μg/ml ([6]; with Example 11 @8 μg/ml): 16 µg/mL | MIC ATB combined with Example 12 @8 μg/ml ([6]; with Example 12 @8 μg/ml): 8 µg/mL | MIC ATB combined with Example 15 @4 μg/ml ([6]; with Example 15 @4 μg/ml): 16 µg/mL | MIC [7, 15]: > 128 µg/mL | MIC ATB combined with Example 1 @8 μg/ml ([7]; with Example 1 @8 μg/ml): >128 µg/mL | MIC ATB combined with Example 3 @8 μg/ml ([7]; with Example 3 @8 μg/ml): >128 µg/mL | MIC ATB combined with Example 6 @8 μg/ml ([7]; with Example 6 @8 μg/ml): <0.25 µg/mL | MIC ATB combined with Example 9 @4 μg/ml ([7]; with Example 9 @4 μg/ml): >128 µg/mL | MIC ATB combined with Example 10 @8 μg/ml ([7]; with Example 10 @8 μg/ml): >128 µg/mL | MIC ATB combined with Example 11 @8 μg/ml ([7]; with Example 11 @8 μg/ml): >128 µg/mL | MIC ATB combined with Example 12 @8 μg/ml ([7]; with Example 12 @8 μg/ml): >128 µg/mL | MIC ATB combined with Example 15 @4 μg/ml ([7]; with Example 15 @4 μg/ml): >128 µg/mL | MIC [8, 15]: > 128 µg/mL | MIC [9, 15]: 512 µg/mL | MIC [10, 15]: 16 µg/mL | MIC ([10]; substance alone, read-out: MIC): 16 µg/mL | MIC [11, 15]: 64 µg/mL | MIC ([11]; substance alone, read-out: MIC): 64 µg/mL | MIC [12, 15]: 8 µg/mL | MIC ([12]; substance alone, read-out: MIC): 8 µg/mL | MIC [13, 15]: 0.063 µg/mL | MIC ([13]; substance alone, read-out: MIC): 0.063 µg/mL

MIC ATB combined with Example ([1]; ATB ATM, SAU 29213): >32 µg/mL | MIC ATB combined with Example ([1]; ATB FEP, SAU 29213): 0.5 µg/mL | MIC ATB combined with Example ([1]; ATB FOS, SAU 29213): <=0.125 μg/mL | MIC ATB combined with Example ([1]; ATB MEM, SAU 29213): <=0.031 μg/mL | MIC ATB combined with Example ([1]; ATB PIP, SAU 29213): 1 µg/mL | MIC [1, 14]: 32 µg/mL | MIC ATB combined with Example ([2]; ATB ATM): 0.063 µg/mL | MIC ATB combined with Example ([2]; ATB FEP): <=0.031 μg/mL | MIC ATB combined with Example ([2]; ATB FOS): 8 µg/mL | MIC ATB combined with Example ([2]; ATB MEM): >32 µg/mL | MIC ATB combined with Example ([2]; ATB PIP): >32 µg/mL | MIC ([2]; substance alone, read-out: MIC): > 32 µg/mL | MIC ATB combined with Example ([3]; ATB ATM): <=0.031 μg/mL | MIC ATB combined with Example ([3]; ATB FEP): <=0.031 μg/mL | MIC ATB combined with Example ([3]; ATB FOS): 2 µg/mL | MIC ATB combined with Example ([3]; ATB MEM): <=0.031 μg/mL | MIC ATB combined with Example ([3]; ATB PIP): <=0.031 μg/mL | MIC ([3]; substance alone, read-out: MIC): 16 µg/mL | MIC ATB combined with Example ([4]; ATB ATM): <=0.031 μg/mL | MIC ATB combined with Example ([4]; ATB FEP): 0.063 µg/mL | MIC ATB combined with Example ([4]; ATB FOS): 32 µg/mL | MIC ATB combined with Example ([4]; ATB MEM): 0.063 µg/mL | MIC ATB combined with Example ([4]; ATB PIP): 1 µg/mL | MIC ATB combined with Example ([5]; ATB ATM): <0.031 µg/mL | MIC ATB combined with Example ([5]; ATB FEP): <0.031 µg/mL | MIC ATB combined with Example ([5]; ATB FOS): <0.125 µg/mL | MIC ATB combined with Example ([5]; ATB MEM): <0.031 µg/mL | MIC ATB combined with Example ([5]; ATB PIP): <0.031 µg/mL | MIC ([5]; substance alone, read-out: MIC): 2 µg/mL | MIC ([6]; substance alone, read-out: MIC): 32 µg/mL | MIC ([7]; substance alone, read-out: MIC): > 32 µg/mL | MIC ATB combined with Example ([8]; ATB ATM): <=0.031 μg/mL | MIC ATB combined with Example ([8]; ATB FEP): <=0.031 μg/mL | MIC ATB combined with Example ([8]; ATB FOS): <0.125 µg/mL | MIC ATB combined with Example ([8]; ATB MEM): <0.031 µg/mL | MIC ATB combined with Example ([8]; ATB PIP): <0.031 µg/mL | MIC ([8]; substance alone, read-out: MIC): 2 µg/mL | MIC ATB combined with Example ([9]; ATB ATM): <0.031 µg/mL | MIC ATB combined with Example ([9]; ATB FEP): <0.031 µg/mL | MIC ATB combined with Example ([9]; ATB FOS): <0.125 µg/mL | MIC ATB combined with Example ([9]; ATB MEM): <0.031 µg/mL | MIC ATB combined with Example ([9]; ATB PIP): <0.031 µg/mL | MIC ([9]; substance alone, read-out: MIC): 0.5 µg/mL | MIC ATB combined with Example ([10]; ATB ATM): <0.031 µg/mL | MIC ATB combined with Example ([10]; ATB FEP): <0.031 µg/mL | MIC ATB combined with Example ([10]; ATB FOS): <0.125 µg/mL | MIC ATB combined with Example ([10]; ATB MEM): <0.031 µg/mL | MIC ATB combined with Example ([10]; ATB PIP): <0.031 µg/mL | MIC ([10]; substance alone, read-out: MIC): 4 µg/mL | MIC ATB combined with Example ([11]; ATB ATM): <0.031 µg/mL | MIC ATB combined with Example ([11]; ATB FEP): <0.031 µg/mL | MIC ATB combined with Example ([11]; ATB FOS): <0.125 µg/mL | MIC ATB combined with Example ([11]; ATB MEM): <0.031 µg/mL | MIC ATB combined with Example ([11]; ATB PIP): <0.031 µg/mL | MIC ([11]; substance alone, read-out: MIC): 4 µg/mL | MIC ATB combined with Example ([12]; ATB ATM): <0.031 µg/mL | MIC ATB combined with Example ([12]; ATB FEP): <0.031 µg/mL | MIC ATB combined with Example ([12]; ATB FOS): <0.125 µg/mL | MIC ATB combined with Example ([12]; ATB MEM): <0.031 µg/mL | MIC ATB combined with Example ([12]; ATB PIP): <0.031 µg/mL | MIC ([12]; substance alone, read-out: MIC): 4 µg/mL | MIC ATB combined with Example ([13]; ATB ATM): <0.031 µg/mL | MIC ATB combined with Example ([13]; ATB FEP): <0.031 µg/mL | MIC ATB combined with Example ([13]; ATB FOS): <0.125 µg/mL | MIC ATB combined with Example ([13]; ATB MEM): <0.031 µg/mL | MIC ATB combined with Example ([13]; ATB PIP): <0.031 µg/mL | MIC ([13]; substance alone, read-out: MIC): 1 µg/mL
Structure (SMILES): NCCCn1c2c(sc1=O)C1CN(C2)C(=O)N1OS(=O)(=O)O (stereo not shown) [Example 10, [5-(3-aminopropyl)-4,9-dioxo-3-thia-5,8,10-triaza-tricyclo[6.2.1.0^2,6]undec-2(6)-en-10-yl] hydrogen sulfate]
